Values quoted from earlier work in patent publication EP2739646B1, “COMPREHENSIVE BUFFER SYSTEM FOR RENATURING HUMAN PROINSULIN OR PROINSULIN DERIVATIVES” (Hermann, Stefan, priority 2011, dated 2012).
Where two headings read alike, the source gives them in different places. Blank lines part the entries; values can stand above or below the molecule they belong to.

What was measured:
[1] = not given; remark: listed apart in the source

Compound: O=C(O)CCCC(=O)O [glutaric acid]
water solubility (temperature not given): 64.0 g/100ml

Compound: N[C@@H](CS)C(=O)O [cysteine]
pKa ([1]; first value listed): 2.05
pKa ([1]; second value listed): 10.25
pKa ([1]; third value listed): 8.00
water solubility (at 25°C): > 50 g/100g water

Compound: CCCCC(=O)O [valeric acid]
water solubility (temperature not given): 4.97 g/100ml

Compound: O=C(O)[C@@H]1CCCN1 [proline]
pKa ([1]; first value listed): 2.0
pKa ([1]; second value listed): 10.6

Results, then the molecule that gave them:

water solubility (at 25°C): 16.5 g/100g water
Compound: C[C@H](N)C(=O)O [alanine]

pKa ([1]; first value listed): 2.01
pKa ([1]; second value listed): 9.4
Compound: N=C(N)NCCC[C@H](N)C(=O)O [arginine]
